# ChEMBL document CHEMBL4303773 (Nature, 2020)
# The source made the active and inactive calls. The calls are words filed in the database; no cut-off is given here.
# Experiments:
# [1] = (§1) Cytotoxicity of compound against Vero E6 cells by MTT assay.; settings: chlorocebus sabaeus, Vero E6 cells
# SARS-CoV-2 [2] = test: IC90 for antiviral activity against SARS-CoV-2 in the Vero E6 cell line by measuring infectious viral titer of supernatent from compound-treated Vero E6 cells by Median Tissue Culture Infectious Dose (TCID)50 by the method of Reed and Muench; type: functional, Chlorocebus sabaeus; settings: Severe acute respiratory syndrome coronavirus 2, Vero C1008
# Vero C1008 [3] = test: as §1; settings: chlorocebus sabaeus, vero c1008
# SARS-CoV-2 [4] = test: microbe, parasite or virus in culture; type: functional, organism-based, Chlorocebus sabaeus; settings: Severe acute respiratory syndrome coronavirus 2, Vero C1008, 48 h
# Vero C1008 [5] = test: AUC (cytotoxicity %) of compound against Vero E6 cells by MTT assay.; type: toxicity, cell-based; settings: chlorocebus sabaeus
# SARS-CoV-2 [6] = settings: Chlorocebus sabaeus; Vero C1008
SMILES,CC50 [1],AUC cytotoxicity (Vero C1008 [5]),AUC (SARS-CoV-2 [6]),further results
NCCCC[C@H](N[C@@H](CCc1ccccc1)C(=O)O)C(=O)N1CCC[C@H]1C(=O)O [LISINOPRIL ANHYDROUS],~8320 nM (inactive),–,–,–
Clc1ccc(C(OCCN2CCCCC2)c2ccccc2)cc1 (configuration not stated) [CLOPERASTINE],~661 nM (active),–,–,–
COc1cccc2c1CCCC2CCCN1CCN(C2CCCCC2)CC1 (configuration not stated),–,–,–,IC90 (SARS-CoV-2 [2]): 278 nM
CC[C@H](C)C(=O)O[C@H]1C[C@@H](C)C=C2C=C[C@H](C)[C@H](CC[C@@H]3C[C@@H](O)CC(=O)O3)[C@H]21 [LOVASTATIN],–,–,–,pCC50 (Vero C1008 [3]): 5.4
CC(=O)Oc1ccccc1C(=O)Nc1ncc([N+](=O)[O-])s1 [NITAZOXANIDE],–,–,–,IC50 (SARS-CoV-2 [4]): 2820 nM
C[C@@H]1CN(CCCn2c3ccccc3c3ccccc32)C[C@H](C)N1 [RIMCAZOLE],–,215.6,–,pCC50 (Vero C1008 [3]): 2.24
O=c1[nH]c(=O)n([C@H]2C[C@H](O)[C@@H](CO)O2)cc1/C=C/Br [BRIVUDINE],–,244.3,255,–
COc1cc2c(c(OC)n1)[C@]1(O)[C@H](O)[C@H](CN(C)C)[C@@H](c3ccccc3)[C@]1(c1ccc(C#N)cc1)O2 [ZOTATIFIN],5.12 nM (active),–,–,IC90 (SARS-CoV-2 [2]): 37 nM
COc1cc(OC)c2c(=O)[nH]c(-c3cc(C)c(OCCO)c(C)c3)nc2c1 [APABETALONE],~207 nM (inactive),281.9,293,–
CCNC(=O)c1noc(-c2cc(C(C)C)c(O)cc2O)c1-c1ccc(CN2CCOCC2)cc1 [LUMINESPIB],~67.6 nM,161.6,172,–
Cc1ncsc1-c1ccc(CNC(=O)[C@@H]2C[C@@H](O)CN2C(=O)[C@@H](NC(=O)COCCOCCOCCNC(=O)C[C@@H]2N=C(c3ccc(Cl)cc3)c3c(sc(C)c3C)-n3c(C)nnc32)C(C)(C)C)cc1,300 nM,–,–,–
Cc1cc2c(s1)Nc1ccccc1N=C2N1CCN(C)CC1 [OLANZAPINE],~2880 nM (inactive),–,–,–
CC(C)n1nc(-c2ccc3oc(N)nc3c2)c2c(N)ncnc21 [SAPANISERTIB],1.24 nM,102,329,–
CO[C@H]1C[C@@H]2CC[C@@H](C)[C@@](O)(O2)C(=O)C(=O)N2CCCC[C@H]2C(=O)O[C@H]([C@H](C)C[C@@H]2CC[C@@H](O)[C@H](OC)C2)CC(=O)[C@H](C)/C=C(\C)[C@@H](O)[C@@H](OC)C(=O)[C@H](C)C[C@H](C)/C=C/C=C/C=C/1C [SIROLIMUS],~0.479 nM,–,–,–
C[C@@H](C1CCCCC1)n1c(-c2cc3c(cc2Br)OCO3)nc2cc(C(=O)Nc3ccc(C#N)cc3)ccc21,~102 nM (inactive),261.6,227,–
COc1cccc2c(NCc3ccccc3)nc(-n3c(N)nc4ccccc43)nc12,–,175.5,223,pCC50 (Vero C1008 [3]): 2.936
CN(C)C(=O)COC(=O)Cc1ccc(OC(=O)c2ccc(NC(=N)N)cc2)cc1 [CAMOSTAT],~3630 nM (inactive),276.3,251,–
CCCC(CCC)C(=O)O [VALPROIC ACID],–,235.1,300,–
Cc1noc2c1-c1ccccc1C(c1ccc(Cl)cc1)=N[C@H]2CC(N)=O [PELABRESIB],~42.7 nM (inactive),193.2,249,–
N=C(N)Nc1ccc(C(=O)Oc2ccc3cc(C(=N)N)ccc3c2)cc1 [NAFAMOSTAT],–,–,302,IC50 (SARS-CoV-2 [4]): ~39800 nM (inactive)
C[C@H](CS)C(=O)N1CCC[C@H]1C(=O)O [CAPTOPRIL],~1230 nM (inactive),271.9,276,–
